Experimental data published in patent US10793543B2, “Selective C-KIT kinase inhibitor” (PRECEDO PHARMACEUTICALS CO., LTD, priority 2016, dated 2020).

What was measured:
[1] = system: gastrointestinal stromal tumor cell lines GIST-882; assay: Mouse tumor model of GIST-882 cells; format: in vivo; conditions: GIST-882 model; for tumor inhibition rate: Day 21 after administration
Method: 1. 4-6 week-old Bal b/c female mice were purchased from Shanghai SLAC Experimental Animal Co., Ltd., and were raised in a SPF-level laboratory. Drinking water and padding were both subjected to aseptic processing via high-pressure disinfection, and all operations of the mice were conducted under aseptic conditions;
2. About 5×10^6 gastrointestinal stromal tumor cell lines GIST-T1 or GIST-882 (purchased from ATCC) were respectively injected subcutaneously at left side back of all mice at Day 0;
5. Mice were sacrificed on Day 36 (for GIST-882 mouse model) or Day 43 (GIST-T1 mouse model) and subcutaneous tumors were taken out and weighed for comparison;
6. Tumor tissue specimens were prepared into protein lysate samples for further usage;
7. Growth trend of subcutaneous tumors from Day 16 to Day 43 was derived, and tumor volume was calculated as length×width×width/2 mm^3.

GIST-T1 cells [2] = assay: Apoptosis, PARP and Caspase 3 cleavage by Western Blot, GIST-T1; format: cell-based, human; conditions: GIST-T1, 0.3 μM, 48 hours
From the text: The effects of different concentrations of drugs on protein cleavage of DNA repairase poly(ADP-ribose) polymerase (PARP) and Caspase (cysteinyl aspartate-specific proteinase) 3 at different periods of time were examined by Western Blot.

BaF3 cells = assay: Cell proliferation, CCK-8, parental BaF3; format: cell-based; conditions: Mus musculus, 72 hours
From the text: In the present example, the following cells were used: chronic myelogenous leukemia cells K562 (expressing P210 Bcr-Abl mutant gene), human megakaryocytic leukemia cells MEG-01 (expressing P210 Bcr-Abl mutant gene), human peripheral blood basophilic leukemia cells Ku812 (expressing Bcr-Abl mutant gene) (all above cells purchased from ATCC, USA), human gastrointestinal stromal tumor cell lines GIST-T1 cells (expressing wild-type C-KIT gene) (purchased from Cosmo Bio Co., Ltd., Japan), human gastrointestinal stromal tumor cell lines GIST-882 cells (expressing wild-type C-KIT gene) (presented by the Professor Gray Lab, Dana-Farber Cancer Institute, Harvard University, USA), mouse pro-B cells BaF3 (purchased from ATCC, USA).
The cells were incubated for 72 hours, and then the number of viable cells was quantified with a microplate reader by using CCK-8 Cell Viability Assay Kit (purchased from Bestbio Company, Shanghai, China) (CCK-8 can be reduced by dehydrogenase in living cells to a highly water-soluble yellow formazan product, and the amount of formazan produced is proportional to the number of living cells).

GIST-T1 cells [3] = assay: Cell cycle distribution by flow cytometry, GIST-T1; format: cell-based, human; conditions: GIST-T1, treated 24 hours

## Cc1ccc(NC(=O)c2cccc(C(F)(F)F)c2)cc1OC1CCN(C(=O)c2ccncc2)CC1 [Compound 4]
[1]; 50 mg/kg oral daily
  tumor inhibition rate: 44%
[1]; 100 mg/kg oral daily
  tumor inhibition rate: 58%
[1]; oral daily dosing
  effect on body weight of mice: no effect on the body weight of mice
GIST-T1 cells [2]
  cleavage of PARP and Caspase 3: significant cleavage
BaF3 cells
  GI50: > 10 µM
GIST-T1 cells [3]
  effect on cell cycle: significantly blocked in the GO-G1 phase
